What was measured:
Type in all cases: biochemical
AtqCwinv-1 [1] = molecular target: T1, AtqCwinv-1 (Agave tequilana, UniProt I1ZBQ2); experiment: TLC and HPAEC-PAD, sucrose hydrolysis; conditions: 100 mM sucrose, 50 mM sodium acetate pH 4.3, 30 °C; 10 µg affinity purified protein
T1 construct: gene Cwinv1; mature region, signal peptide (24 aa) removed, His-tagged, secreted from Pichia pastoris X-33 (pPICZalphaA); full length 575 aa; about 75 kDa on gel
T1 sequence (I1ZBQ2 25-575): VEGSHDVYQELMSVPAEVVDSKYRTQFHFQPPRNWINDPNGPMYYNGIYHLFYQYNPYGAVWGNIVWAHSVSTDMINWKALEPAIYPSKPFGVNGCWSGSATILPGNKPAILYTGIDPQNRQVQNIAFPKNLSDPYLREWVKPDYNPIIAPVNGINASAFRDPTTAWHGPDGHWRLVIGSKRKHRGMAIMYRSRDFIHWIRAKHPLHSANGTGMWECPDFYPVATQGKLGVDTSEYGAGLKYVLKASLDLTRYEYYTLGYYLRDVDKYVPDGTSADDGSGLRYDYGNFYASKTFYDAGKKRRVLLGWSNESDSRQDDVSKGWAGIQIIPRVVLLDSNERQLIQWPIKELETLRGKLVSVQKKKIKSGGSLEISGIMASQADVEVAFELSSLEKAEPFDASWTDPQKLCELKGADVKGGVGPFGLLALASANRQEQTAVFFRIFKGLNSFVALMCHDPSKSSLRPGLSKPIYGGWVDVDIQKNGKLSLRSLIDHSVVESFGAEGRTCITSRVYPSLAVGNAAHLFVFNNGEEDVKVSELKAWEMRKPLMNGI

AtqCwinv-1 [2] = molecular target: T1, AtqCwinv-1; experiment: HPAEC-PAD, exohydrolase activity; conditions: 100 mM 1-kestose, 50 mM sodium acetate pH 4.3, 30 °C; 10 µg affinity purified protein
Atq6G-FFT-1 = molecular target: T2, Atq6G-FFT-1 (Agave tequilana, UniProt I1ZBQ0); experiment: HPAEC-PAD product analysis; conditions: 50 mM 1-kestose (stock contains some sucrose and nystose), 50 mM sodium acetate pH 5.5, 30 °C; 20 µg total protein extract
T2 construct: gene FFT1; mature region, signal peptide (34 aa) removed, His-tagged, secreted from Pichia pastoris X-33 (pPICZalphaA); full length 627 aa; about 80 kDa on gel
T2 sequence (I1ZBQ0 35-627): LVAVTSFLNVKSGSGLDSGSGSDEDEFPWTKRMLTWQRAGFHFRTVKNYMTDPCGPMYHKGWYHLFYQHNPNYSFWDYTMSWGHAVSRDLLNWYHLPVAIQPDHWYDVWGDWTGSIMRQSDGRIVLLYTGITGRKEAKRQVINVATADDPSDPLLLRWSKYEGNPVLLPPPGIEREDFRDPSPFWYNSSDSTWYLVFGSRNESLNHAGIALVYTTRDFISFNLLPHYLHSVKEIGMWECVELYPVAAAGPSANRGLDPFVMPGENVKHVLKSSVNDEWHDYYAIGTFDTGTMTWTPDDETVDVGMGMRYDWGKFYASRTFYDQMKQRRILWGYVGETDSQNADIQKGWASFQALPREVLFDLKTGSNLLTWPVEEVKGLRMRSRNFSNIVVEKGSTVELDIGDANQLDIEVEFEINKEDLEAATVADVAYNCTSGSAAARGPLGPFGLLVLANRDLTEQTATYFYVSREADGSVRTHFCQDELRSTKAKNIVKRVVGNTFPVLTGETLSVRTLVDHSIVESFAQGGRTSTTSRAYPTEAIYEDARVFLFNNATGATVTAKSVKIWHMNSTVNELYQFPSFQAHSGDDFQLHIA

| SMILES | TLC and HPAEC-PAD, sucrose hydrolysis (AtqCwinv-1 [1]) | HPAEC-PAD, exohydrolase activity (AtqCwinv-1 [2]) | HPAEC-PAD product analysis (Atq6G-FFT-1) |
| --- | --- | --- | --- |
| OC[C@H]1O[C@@](CO)(O[C@H]2O[C@H](CO)[C@@H](O)[C@H](O)[C@H]2O)[C@@H](O)[C@@H]1O [sucrose] | AtqCwinv-1 produced fructose and glucose when incubated with sucrose as the sole substrate |  |  |
| OC[C@H]1O[C@@](CO)(OC[C@@]2(O[C@H]3O[C@H](CO)[C@@H](O)[C@H](O)[C@H]3O)O[C@H](CO)[C@@H](O)[C@@H]2O)[C@@H](O)[C@@H]1O [1-kestose] |  | some exohydrolytic activity occurred when sucrose was replaced by 1-kestose as substrate | 1-kestose was used as substrate no neokestose was produced but a tetrasaccharide 4c molecule |
